From US12240830B2, “Fused ring heteroaryl compounds and use thereof” (BiSiChem Co., Ltd., priority 2021, dated 2025) come the findings set out here.

As a reminder, the IC50 is the point on the concentration scale where inhibition reaches its midpoint.

Molecules are shown by their SMILES. Some results are limits rather than exact numbers.

This test deals with T1, ALK5 (Homo sapiens, UniProt P36897).
T1 construct: Cells were seeded at 3×10^4/well in 24-well plates were transiently transfected with 500 ng of (CAGA)-12-luciferase reporter construct; endogenous in cells; host or cells: Hs578T (ATCC HTB-22)
T1 sequence (P36897 34-503): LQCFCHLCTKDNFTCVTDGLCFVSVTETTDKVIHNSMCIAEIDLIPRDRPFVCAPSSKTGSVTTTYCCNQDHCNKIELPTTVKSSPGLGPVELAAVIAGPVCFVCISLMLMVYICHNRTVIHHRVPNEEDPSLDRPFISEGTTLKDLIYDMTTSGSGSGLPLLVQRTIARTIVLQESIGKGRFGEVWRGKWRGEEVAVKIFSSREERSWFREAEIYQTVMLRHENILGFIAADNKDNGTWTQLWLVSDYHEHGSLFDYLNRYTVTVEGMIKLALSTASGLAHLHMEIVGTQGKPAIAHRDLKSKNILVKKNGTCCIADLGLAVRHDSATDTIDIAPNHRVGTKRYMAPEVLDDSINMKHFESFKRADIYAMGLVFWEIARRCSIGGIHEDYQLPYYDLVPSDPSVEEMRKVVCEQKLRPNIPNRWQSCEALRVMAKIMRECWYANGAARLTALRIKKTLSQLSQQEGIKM
The test can be described thus: Cell-based luciferase reporter assay for ALK5 activity. As to conditions: (CAGA)-12-luciferase reporter, cells stimulated with 2 ng/ml recombinant TGF-β1 for 12 hours; Hs578T cells; read-out: Relative luciferase activity: IC50 value. As for the experimental part:
Human cancer cell lines Hs578T (ATCC® HTB-22™) cells were grown in DMEM (Dulbecco's modified Eagle's medium) supplemented with 10% fetal bovine serum and 1% mixture of penicillin and streptomycin (Gibco). Cells were maintained at 37° C. in a humidified 5% CO2− atmosphere.
Cell-Based Luciferase Reporter Assay for ALK5 Activity
Cells were seeded at 3×10^4/well in 24-well plates were transiently transfected with 500 ng of (CAGA)-12-luciferase reporter construct and 5 ng of pRL-TK Renilla luciferase vector (Promega, Madison, WI), an internal control for transfection efficiency, using Lipofectamine 3000 reagent (Thermo Fisher Scientific, Waltham, USA). After 24 h transfection, the cells were pre-treated with ALK5 inhibitor in dose-dependent manner. And then, Cells stimulated with 2 ng/ml recombinant TGF-β1 for 12 hours. After the stimulation, the firefly and Renilla luciferase activities were measured by Dual-Luciferase Reporter Assay (Promega). […]
On the technique in general: In a reporter assay the amount or activity of a reporter protein is the signal.
Consider `Cc1cccc(-c2[nH]c(NCc3cccc(C)c3F)nc2-c2ccc3c(cnn3C)c2)n1` [Example 17, N-(2-fluoro-3-methylbenzyl)-4-(1-methyl-1H-indazol-5-yl)-5-(6-methylpyridin-2-yl)-1H-imidazol-2-amine], for which the IC50 lay within 0.01 to 0.1 µM.
The figure for `Cc1ccc(CNc2nc(-c3ccc4c(cnn4C)c3)c(-c3cccc(C)n3)[nH]2)c(F)c1` [Example 18, N-(2-fluoro-4-methylbenzyl)-4-(1-methyl-1H-indazol-5-yl)-5-(6-methylpyridin-2-yl)-1H-imidazol-2-amine] is under 0.01 µM; for `Cc1cccc(-c2[nH]c(NCc3ccc(C)c(F)c3)nc2-c2ccc3c(cnn3C)c2)n1` [Example 19, N-(3-fluoro-4-methylbenzyl)-4-(1-methyl-1H-indazol-5-yl)-5-(6-methyl-pyridine-2-yl)-1H-imidazol-2-amine] it is under 0.01 µM; for `Cc1cccc(-c2[nH]c(NCc3cccc(F)c3)nc2-c2ccc3c(cnn3S(C)(=O)=O)c2)n1` [Example 22, N-(3-fluorobenzyl)-5-(6-methylpyridin-2-yl)-4-(1-(methylsulfonyl)-1H-indazol-5-yl)-1H-imidazol-2-amine] it is over 0.1 µM.
As for `Cc1cccc(-c2[nH]c(NCc3cccc(Cl)c3F)nc2-c2ccc3c(cnn3C)c2)n1` [Example 23, N-(3-chloro-2-fluorobenzyl)-4-(1-methyl-1H-indazol-5-yl)-5-(6-methylpyridin-2-yl)-1H-imidazol-2-amine], the IC50 is under 0.01 µM.
With `Cc1cccc(-c2[nH]c(NCc3cccc(F)c3)nc2-c2ccc3c(cnn3C(C)(C)CO)c2)n1` [Example 26, 2-(5-(2-((3-fluorobenzyl)amino)-5-(6-methylpyridin-2-yl)-1H-imidazol-4-yl)-1H-indazol-1-yl)-2-methylpropan-1-ol], the IC50 is over 0.1 µM.
In the case of `Cc1cccc(-c2[nH]c(NCc3cccc(Cl)c3F)nc2-c2ccc3c(cnn3C(F)F)c2)n1` [Example 27], the concentration for half-maximal inhibition (IC50) lay within 0.01 to 0.1 µM.
Regarding `Cc1cccc(-c2[nH]c(NCc3ccc(Cl)c(Cl)c3)nc2-c2ccc3c(cnn3C(F)F)c2)n1` [Example 28, N-(3,4-dichlorobenzyl)-4-(1-(difluoromethyl)-1H-indazol-5-yl)-5-(6-methyl-pyridin-2-yl)-1H-imidazol-2-amine], the IC50 is 0.01 to 0.1 µM.
As to `Cc1cccc(-c2[nH]c(NCc3ccc(F)c(F)c3)nc2-c2ccc3c(cnn3C(F)F)c2)n1` [Example 29, N-(3,4-difluorobenzyl)-4-(1-(difluoromethyl)-1H-indazol-5-yl)-5-(6-methyl-pyridin-2-yl)-1H-imidazol-2-amine], the IC50 lay within 0.01 to 0.1 µM.
For the compound `Cc1cccc(-c2[nH]c(NCc3cccc(F)c3)nc2-c2cnc3c(cnn3C)c2)n1` [Example 31, N-(3-fluorobenzyl)-4-(1-methyl-1H-pyrazolo[3,4-b]pyridin-5-yl)-5-(6-methyl-pyridin-2-yl)-1H-imidazol-2-amine], the IC50 was under 0.01 µM.
The same measure for `Cc1cccc(-c2[nH]c(NCc3cccc(F)c3)nc2-c2ccc3c(cnn3C)n2)n1` [Example 32, N-(3-fluorobenzyl)-4-(1-methyl-1H-pyrazolo[4,3-b]pyridin-5-yl)-5-(6-methyl-pyridin-2-yl)-1H-imidazol-2-amine]: over 0.1 µM; for `Cc1cccc(-c2[nH]c(NCc3cccc(F)c3)nc2-c2cc3cnn(C)c3cn2)n1` [Example 33, N-(3-fluorobenzyl)-4-(1-methyl-1H-pyrazolo[3,4-c]pyridin-5-yl)-5-(6-methyl-pyridin-2-yl)-1H-imidazol-2-amine]: under 0.01 µM; for `Cc1cccc(-c2[nH]c(NCc3cccc(F)c3F)nc2-c2ccc3c(cnn3C)c2)n1` [Example 35, N-(2,3-difluorobenzyl)-4-(1-methyl-1H-indazol-5-yl)-5-(6-methylpyridin-2-yl)-1H-imidazol-2-amine]: 0.01 to 0.1 µM.
For `Cc1cccc(-c2[nH]c(NCc3ccc(F)cc3F)nc2-c2ccc3c(cnn3C)c2)n1` [Example 36, N-(2,4-difluorobenzyl)-4-(1-methyl-1H-indazol-5-yl)-5-(6-methylpyridin-2-yl)-1H-imidazol-2-amine], the IC50 lay in the range of 0.01 to 0.1 µM.
As for `Cc1cccc(-c2[nH]c(NCc3cccc(F)c3)nc2-c2cnc3[nH]ncc3c2)n1` [Example 38, N-(3-fluorobenzyl)-5-(6-methylpyridin-2-yl)-4-(1H-pyrazolo[3,4-b]pyridin-5-yl)-1H-imidazol-2-amine], the half-inhibitory concentration (IC50) was in the range of 0.01 to 0.1 µM.
